IC50 and Ki data for 12 compounds are collected here from ChEMBL document CHEMBL1159182, “SAR of cocaine: further exploration of structural variations at the C-2 center provides compounds of subnanomolar binding potency” (Bioorg Med Chem Lett, 1993).

Test [1] concerns the target T1, Sodium-dependent dopamine transporter (Homo sapiens, UniProt Q01959). Nature of the test: Inhibitory concentration against [3H]dopamine uptake. Type of test: functional.
Test [2] concerns the target T1, Sodium-dependent dopamine transporter. Nature of the test: Displacement of [3H]mazindol from dopamine transporter. (Displacement assays read how much labelled ligand stays bound in the presence of the test substance.)
Test [3] has the same target. As to the kind of experiment: Ability to displace [3H]-Mazindol from dopamine receptor.
Test [4] shares this target. As to the kind of experiment: Ability to displace [3H]mazindol to dopamine receptor; not being isolated.
Test [5] has the same target. As to the kind of experiment: Inhibitory concentration required for [3H]dopamine uptake; not being isolated. Type of test: functional.
Test [6] shares this target. Nature of the test: Ability to displace [3H]mazindol from dopamine transporter.
For test [7] the target is unchanged. As to the kind of experiment: Binding constant for [3H]dopamine uptake was calculated from the Cheng-Prusoff relationship.
For test [8] the target is unchanged. As to the kind of experiment: Binding constant for the ability to displace [3H]mazindol to dopamine receptor was calculated from the Cheng-Prusoff relationship.

Values joined by “and” are separate entries in the source; they are usually repeats but may differ in a detail not shown here. Equal values may be shown once.

T1 sequence (Q01959 whole entry): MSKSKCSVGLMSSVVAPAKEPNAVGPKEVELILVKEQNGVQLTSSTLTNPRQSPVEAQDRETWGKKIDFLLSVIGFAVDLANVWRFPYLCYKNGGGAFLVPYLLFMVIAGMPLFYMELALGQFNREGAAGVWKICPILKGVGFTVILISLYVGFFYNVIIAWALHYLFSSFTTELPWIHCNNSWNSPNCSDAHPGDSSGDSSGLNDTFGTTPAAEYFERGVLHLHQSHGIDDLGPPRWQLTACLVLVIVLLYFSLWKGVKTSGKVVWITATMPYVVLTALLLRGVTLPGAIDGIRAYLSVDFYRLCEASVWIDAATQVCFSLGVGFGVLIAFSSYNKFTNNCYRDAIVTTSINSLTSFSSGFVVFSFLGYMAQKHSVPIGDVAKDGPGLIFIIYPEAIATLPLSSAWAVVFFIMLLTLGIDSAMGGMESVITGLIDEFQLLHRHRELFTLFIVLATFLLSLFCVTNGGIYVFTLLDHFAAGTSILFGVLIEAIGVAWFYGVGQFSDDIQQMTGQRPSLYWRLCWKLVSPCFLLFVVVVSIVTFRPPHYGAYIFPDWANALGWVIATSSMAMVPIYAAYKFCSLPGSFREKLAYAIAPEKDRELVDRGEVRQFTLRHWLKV

Regarding `CN1C2CCC1[C@H](/C=C/Cl)[C@@H](c1ccc(Cl)cc1)C2` (stereo partly specified), the IC50 (usually the concentration that gives 50% inhibition) in test [1] was 19 nM and 16 nM; in test [2] it was 24 nM and 18 nM.

Take `CC[C@@H]1C2CCC(C[C@@H]1c1ccc(Cl)cc1)N2C` (stereo partly specified): the IC50 in test [1] was 2.6 nM; in test [2], 3.5 nM.

On to `CN1C2CCC1[C@@H]([C@@H](O)C(F)(F)F)[C@@H](c1ccc(Cl)cc1)C2` (stereo partly specified), for which the figures for the IC50 in test [1] and in test [2] were 10.5 nM and 9.2 nM, respectively.

For `C=C[C@@H]1C2CCC(C[C@@H]1c1ccc(Cl)cc1)N2C` (stereo partly specified), the IC50 in test [1] stood at 2.8 nM; in test [3], 1.2 nM.

Regarding `CN1C2CCC1[C@@H](C(=O)C(F)(F)F)[C@@H](c1ccc(Cl)cc1)C2` (stereo partly specified), the 50% inhibitory concentration (IC50) entry in test [4] and in test [5] was “not isolated” each time.

Turning to `CN1C2CCC1[C@H](C(=O)C(F)(F)F)[C@@H](c1ccc(Cl)cc1)C2` (stereo partly specified), the IC50 in test [1] stood at 377 nM; in test [2], 1190 nM.

For the compound `CN1C2CCC1[C@@H]([C@H](O)C(F)(F)F)[C@@H](c1ccc(Cl)cc1)C2` (stereo partly specified), the IC50 result in test [4] and in test [5] was “not isolated” in each case.

`COC(=O)C1C2CC[C@H](C[C@@H]1c1ccc(Cl)cc1)N2C` (stereo partly specified): the IC50 stood at 1.7 nM in test [6] and 3.2 nM in test [1].

Take `CN1C2CCC1[C@@H](/C=C/Cl)[C@@H](c1ccc(Cl)cc1)C2` (stereo in doubt; 4): the values for the concentration for half-maximal inhibition (IC50) in test [1] and in test [2] were 1.3 nM and 0.73 nM, respectively.

As for `CN1C2CCC1[C@@H](/C=C/Cl)[C@@H](c1ccc(Cl)cc1)C2` (stereo in doubt; 5), the inhibition constant (Ki) – broadly, the equilibrium dissociation constant of an inhibitor or competing ligand from its target – in test [7] is 0.88 nM; in test [8], 0.22 nM. Also, the IC50 in test [1] turned out to be 0.99 nM; in test [2], 0.36 nM.

`CN1C2CCC1[C@H](C(O)C(F)(F)F)[C@@H](c1ccc(Cl)cc1)C2` (stereo in doubt; 12): the IC50 in test [1] is 125 nM; in test [2], 166 nM.

Turning to `CN1C2CCC1[C@H](C(O)C(F)(F)F)[C@@H](c1ccc(Cl)cc1)C2` (stereo in doubt; 13), the IC50 in test [1] came to 525 nM; in test [2], 1100 nM.
